This passage reports melting point results from US6861438B2, “Antiviral agents” (Pfizer, priority 2002, dated 2005).

One may read the melting point as the temperature, or range, at which the solid turns liquid. On to `O=C(NCc1ccc(Cl)cc1)c1cnc2ccsc2c1O` [Example 1, N-(4-Chlorobenzyl)-7-hydroxythieno[3,2-b]pyridine-6-carboxamide], for which the melting point is 295 °C (dec.).

Turning to `CCn1cc(C(=O)NCc2ccc(Cl)cc2)c(=O)c2sccc21` [Example 2, N-(4-Chlorobenzyl)-4-ethyl-7-oxo-4,7-dihydrothieno[3,2-b]pyridine-6-carboxamide], the melting point fell in the range of 189 to 192 °C.
